Results taken from patent publication US20140163095A1, “USE OF ERIBULIN IN THE TREATMENT OF BREAST CANCER” (priority 2012, published 2014).

Tested on: locally advanced or metastatic breast cancer
Test: Phase III clinical trial comparing eribulin mesylate and capecitabine
Conditions: for overall survival as compared to capecitabine: FIG. 6
[1] = of patients with any new metastasis

Experimental: A global, randomized, open-label, two-parallel-arm, phase III clinical trial of eribulin (eribulin mesylate) and capecitabine was performed.
This study randomized 1102 patients who had up to three prior chemotherapy regimens, and no more than two prior regimens for advanced and/or metastatic disease. The prior regimens must have included an anthracycline and a taxane, either in the (neo) adjuvant setting or for locally advanced or metastatic disease. Patients must have had documented evidence of progression during or after their most recent anti-cancer therapy. […] Patients were randomized to receive either eribulin mesylate as an intravenous (IV) infusion of 1.4 mg/m^2 over 2-5 minutes on days 1 and 8 every 21 days or capecitabine as an oral administration of 2.5 g/m^2/day administered twice daily in two equal doses on days 1 to 14 every 21 days.
This study was designed to have co-primary endpoints, overall survival (OS) and progression free survival (PFS), with alpha spending 0.04 and 0.01, respectively.
Progression events (disease progression determined by Response Evaluation Criteria in Solid Tumors [RECIST, version 1.0]) were categorized as: (i) emergence of a new lesion/metastasis, defined here as a lesion identified at progression that had not been previously reported, (ii) increase in size of an existing (previously reported) lesion (target or non-target), and (iii) other PFS event, e.g., death, clinical progression, or censoring. Investigator review of disease progression was used as the primary analysis for these investigations. Where progression was determined by investigator review, no further scans were performed, leading to informative censoring of independent review data (approximately 20%). The number of new metastases observed by independent review was considered an under-estimate due to this considerable informative censoring. OS and PFS were compared between treatment arms using two-sided, stratified (geographic region and HER2 status) log-rank tests. The correlation between progression events and OS was investigated by Cox regression, incorporating the event as a time-dependent covariate. New metastasis-free survival, defined as time from randomization to death or progression due to appearance of a new metastasis (whichever occurs earlier), was also analyzed.

**Q.** With `C=C1C[C@@H]2CC[C@@]34C[C@H]5O[C@H]6[C@@H](O3)[C@H]3O[C@H](CC[C@@H]3O[C@H]6[C@H]5O4)CC(=O)C[C@@H]3[C@@H](OC)[C@@H](C[C@H](O)CN)O[C@H]3C[C@H]3O[C@@H](CC[C@@H]1O2)C[C@@H](C)C3=C.CS(=O)(=O)O` [Eribulin, 11,15:18,21:24,28-Triepoxy-7,9-ethano-12,15-methano-9H,15H-furo[3,2-i]furo[2′,3′:5,6]pyrano[4,3-b][1,4]dioxacyclopentacosin-5(4H)-one, 2-[(2S)-3-amino-2-hydroxypropyl]hexacosahydro-3-methoxy-26-methyl-20,27-bis(methylene)-, (2R,3R,3aS,7R,8aS,9S,10aR,11S,12R,13aR,13bS,15S,18S,21S,24S,26R,28R,29aS)-methanesulfonate (salt)] as the molecule, how does the “time to a new metastasis observed in the CNS, lungs, or liver” value (FIG. 5, in words) read?
**A.** trend favouring eribulin over capecitabine

**Q.** And the “overall survival as compared to capecitabine” value (HER2 negative patients, in words)?
**A.** increased overall survival

**Q.** What about the “median overall survival (OS)” value (all randomized patients) of the same molecule?
**A.** 15.9 months

**Q.** What about the “median progression-free survival (PFS)” value (all randomized patients) of the same molecule?
**A.** 4.1 months

**Q.** What about the “median survival as compared to capecitabine” value (breast cancers not characterized as triple negative, FIG. 7B, in words) of the same molecule?
**A.** similar

**Q.** And the “New metastasis site: Bone, patients” value (count)?
**A.** 60

**Q.** And the “New metastasis site: Breast, patients” value (count)?
**A.** 12

**Q.** What about the “New metastasis site: CNS (brain/spine), patients” value (count) of the same molecule?
**A.** 13

**Q.** And the “New metastasis site: Chest wall, patients” value (count)?
**A.** 15

**Q.** And the “New metastasis site: Liver, patients” value (count)?
**A.** 71

**Q.** What about the “New metastasis site: Lung, patients” value (count) of the same molecule?
**A.** 59

**Q.** What about the “New metastasis site: Lymph nodes, patients” value (count) of the same molecule?
**A.** 64

**Q.** And the “New metastasis site: Other, patients” value (count)?
**A.** 30

**Q.** What about the “New metastasis site: Skin, patients” value (count) of the same molecule?
**A.** 23

**Q.** And the “Number of patients with any new metastasis observed” value (count, investigator review, intent-to-treat)?
**A.** 291

**Q.** And the “hazard ratio, overall survival” value (eribulin versus capecitabine, 95% CI 0.77, 1.00)?
**A.** 0.88

**Q.** What about the “hazard ratio, progression-free survival” value (eribulin versus capecitabine, 95% CI 0.93, 1.25) of the same molecule?
**A.** 1.08

**Q.** What about the “1-year OS relative to capecitabine” value (in words) of the same molecule?
**A.** statistically significant improvement

**Q.** And the “new metastasis-free survival, median difference in favour of eribulin” value (independent review)?
**A.** 0.3 months

**Q.** What about the “new metastasis-free survival, median difference in favour of eribulin” value (investigator review) of the same molecule?
**A.** 0.6 months

**Q.** And the “patients with progression due to a new metastasis” value (investigator review)?
**A.** 48.9%

**Q.** And the “patients with progression due to increase in the size of a pre-existing lesion” value (investigator review)?
**A.** 26.5%

**Q.** And the “patients with progression due to other reasons such as death and clinical progression” value (investigator review)?
**A.** 24.5%

**Q.** And the “patients with any new metastasis observed, percentage” value (investigator review, intent-to-treat)?
**A.** (52.5) %

**Q.** And the “HR, new metastasis-free survival” value (investigator review, eribulin versus capecitabine)?
**A.** 0.90

**Q.** And the “New metastasis site: Bone, percentage” value [1]?
**A.** (20.6) %

**Q.** And the “New metastasis site: Breast, percentage” value [1]?
**A.** (4.1) %

**Q.** And the “New metastasis site: CNS (brain/spine), percentage” value [1]?
**A.** (4.5) %

**Q.** And the “New metastasis site: Chest wall, percentage” value [1]?
**A.** (5.2) %

**Q.** And the “New metastasis site: Liver, percentage” value [1]?
**A.** (24.4) %

**Q.** What about the “New metastasis site: Lung, percentage” value [1] of the same molecule?
**A.** (20.3) %

**Q.** What about the “New metastasis site: Lymph nodes, percentage” value [1] of the same molecule?
**A.** (22.0) %

**Q.** And the “New metastasis site: Other, percentage” value [1]?
**A.** (10.3) %

**Q.** What about the “New metastasis site: Skin, percentage” value [1] of the same molecule?
**A.** (7.9) %

**Q.** What about the “median OS longer with eribulin compared with capecitabine” value (patients whose disease progressed due to a new metastasis) of the same molecule?
**A.** 2.6 months

**Q.** And the “Median OS” value (patients whose disease progressed due to other events)?
**A.** 16.7 months

**Q.** What about the “Median OS” value (patients with progression due to new metastasis) of the same molecule?
**A.** 15.5 months

**Q.** What about the “Median OS” value (patients with progression due to pre-existing lesion) of the same molecule?
**A.** 17.4 months

**Q.** And the “HR, overall survival” value (progression due to new metastasis, eribulin versus capecitabine)?
**A.** 0.81

**Q.** What about the “HR, overall survival” value (progression due to other events, eribulin versus capecitabine) of the same molecule?
**A.** 0.78

**Q.** And the “HR, overall survival” value (progression due to pre-existing lesion, eribulin versus capecitabine)?
**A.** 1.13

**Q.** What about the “median survival as compared to capecitabine” value (triple negative breast cancers, FIG. 7A, in words) of the same molecule?
**A.** statistically significant increase

**Q.** What about the “overall survival as compared to capecitabine” value (triple negative patients, in words) of the same molecule?
**A.** most significant improvement
